# Literature values as cited in patent publication US8632828B2, “Chinese herbal medicine composition used for antiinflammation, detumescence and acesodyne, and preparation method and use thereof” (priority 2009, dated 2014).
# Key:
# mice = settings: subcutaneous injection
# People = settings: oral administration
# rats = settings: intravenous injection
# [1] = test system: ehrlich ascites tumor of mice; settings: intraperitoneal injection
# melanin tumour = settings: mice, intraperitoneal injection
compound,measurement,setting,value
CCN1C[C@]2(COC)[C@H](O)C[C@H](OC)[C@@]34[C@@H]5C[C@@]6(O)[C@H](OC(=O)c7ccccc7)[C@@H]5[C@@](OC(C)=O)([C@@H]([C@H](OC)[C@H]23)[C@@H]14)[C@@H](O)[C@@H]6OC [Aconitine],LD50,mice,0.32 mg/kg
same,fatal dosage,People,2~5 mg
COc1c2ccoc2cc2oc(=O)ccc12 [bergapten],LD50,rats,945 mg/kg
Cc1cc(O)c2c(c1)C(=O)c1cc(O)cc(O)c1C2=O [emodin],inhibiting effect on ehrlich ascites tumor,[1],"injection, have good inhibiting"
same,inhibiting effect on melanin tumour,melanin tumour,"injection, have good inhibiting"
COC[C@]12CN(C)[C@@H]3[C@@H]4[C@H](OC)[C@H]1[C@@]3([C@@H](OC)C[C@H]2O)[C@@H]1C[C@@]2(O)[C@H](OC(=O)c3ccccc3)[C@@H]1[C@]4(OC(C)=O)[C@@H](O)[C@@H]2OC [mesaconitine],fatal dosage,mice,fatal dosage was 0.3~0.5 mg/kg.
COc1c2occc2cc2ccc(=O)oc12 [xanthotoxin],LD50,rats,160 mg/kg
